O=C1CCc2ccc(OCCCCN3CCN(c4cccc(Cl)c4Cl)CC3)cc2N1
solubility (mole fraction)
Conditions | 278.15 K | 283.15 K | 288.15 K | 293.15 K | 298.15 K | 303.15 K | 308.15 K | 313.15 K | 318.15 K
in acetone | 1.97e-05 | 2.73e-05 | 3.6e-05 | 4.71e-05 | 5.94e-05 | 7.32e-05 | 8.93e-05 | 0.00011 | 0.000135
in isopropanol | 6.32e-06 | 9.1e-06 | 1.22e-05 | 1.68e-05 | 2.25e-05 | 2.94e-05 | 3.89e-05 | 5.05e-05 | 6.38e-05
in n-propanol | 1.46e-05 | 1.93e-05 | 2.57e-05 | 3.28e-05 | 4.12e-05 | 5.37e-05 | 6.72e-05 | 8.32e-05 | 0.000103

From BigSolDB 2.1
